# Laboratory results from publication PMC11960969, “Mdga2 deficiency leads to an aberrant activation of BDNF/TrkB signaling that underlies autism-relevant synaptic and behavioral changes in mice” (PLOS Biology, 2025).
# Key:
# [1] = test system: TrkB signaling and synaptic proteins (pTrkB, pAkt, pmTOR, NLGN1, PSD-95, PSD-93); test: Immunoblotting of TrkB signaling and synaptic proteins in primary neurons treated with ANA-12; format: cell-based, mouse; conditions: primary neurons from Mdga2+/- and Mdga2-/- mice, 10 μM, 24 h, n = 3
# mice [2] = test: Novel location recognition (NLR) test; format: in vivo, mouse
# Procedure: (§1) Six- to eight-week-old male mice were subjected to various behavioral tests. Mice were allowed to acclimatize in the testing room for 1 h prior to each test. Data were recorded and analyzed using Smart 3.0 video tracking system (Panlab, Harvard Apparatus).
# This test consists of habituation, training, and testing phases. Mice were first put into the open field apparatus described above for 10 min habituation. During the training phase, mice were allowed to freely explore two identical objects placed near two opposite corners of the open field arena for 8 min. Twenty-four hour later, one of the objects was moved to be close to a third corner (N: Novel location) while the other one was kept in the same spatial position (F: Familiar location). Mice were then tested for their exploration behavior with these objects for 8 min. The discrimination index (T(N − F)/T(N + F): time spent exploring the novel location minus time spent in familiar location over time spent to both novel and familiar location) was calculated to assess the recognition memory of mice.
# [3] = test system: AMPAR and NMDAR (evoked EPSCs); test: Evoked AMPAR- and NMDAR-mediated EPSCs and AMPAR/NMDAR ratio in hippocampal slices; design: species or system mouse
# [4] = test system: CA1 pyramidal neurons (mEPSC, mIPSC); test: Whole-cell recording of mEPSCs and mIPSCs in hippocampal slices; design: species or system mouse; conditions: chronic 0.5 mg/kg i.p.
# [5] = test system: cell surface GluA1, GluN1; test: Cell surface biotinylation of GluA1 and GluN1 in hippocampal neurons; format: cell-based, mouse; conditions: 10 μM ANA-12, 24 h, 12 DIV
# Procedure: ANA-12 was dissolved in saline containing 10% DMSO to a final concentration of 0.5 mg/kg and intraperitoneally administered into male mice. For chronic treatment, ANA-12 was administered to 3-week-old male mice at twice/week for 3 weeks until mice reached 6 weeks of age. For acute treatment, ANA-12 was administered to 4-week-old male mice for three consecutive days. For and cultured neurons, ANA-12 was suspended to a 10 mM concentration in DMSO and diluted 1:1,000 in solution. Final concentration for treatment is 10 µ M with 0.1% DMSO.
# Supplementary file pbio.3003047.s005.tif: S5 Fig Pharmacological inhibition of […] improves social behaviors in Mdga2 ^+/− mice. (A, B) The miniature inhibitory postsynaptic currents (mIPSCs) of hippocampal neurons in treated Het mice and their wild-type (WT) littermates were recorded and their kinetics (rise time and decay) were quantified for comparison. n = 14 cells from 3 mice per group. (C, D) The miniature excitatory postsynaptic currents (mEPSCs) of hippocampal neurons in treated mice were recorded and their kinetics (rise time and decay) were quantified for comparison. n = 14 cells from 3 mice per group. (E) Representative traces of evoked NMDAR-mediated EPSCs and quantitative analysis of evoked NMDAR-mediated EPSC amplitude with increasing stimulus intensity. n = 20–23 cells from 3 mice per group. […]
# [6] = test system: TrkB signaling (pTrkB, pAkt, pmTOR); test: Immunoblotting of TrkB signaling in hippocampus / brain of treated mice; format: in vivo, mouse; conditions: AAV-Mdga2 shRNA mice, n = 4, Fig 6E and 6H
# mice [7] = test: Social affiliation test; format: in vivo, mouse; conditions: Mdga2+/- mice
# Procedure: as §1
# The test procedure was similar to that described previously. Briefly, a cylinder (8.5 cm in diameter) with a gender-matched reference mouse confined was placed at a specific location in an open field (40 cm in diameter). Tested mice were allowed to move freely in the open field for 7 min and their sniffing time with the reference mice was analyzed.
# mice [8] = test: Self-grooming test; format: in vivo, mouse; conditions: Mdga2+/- mice, chronic 0.5 mg/kg i.p.; Test 1 Interaction F(1,56) = 0.1344, p = 0.7153; Test 2 F(1,56) = 0.2389, p = 0.6269
# Procedure: as §1
# Tested mice were placed individually in a clean cage with fresh bedding. After 5 min of habituation, the spontaneous behaviors of mice were recorded for 30 min and their self-grooming behavior was analyzed.
smiles,measurement,setting,value
"O=C(Nc1ccccc1C(=O)NC1CCCCNC1=O)c1cc2ccccc2s1 (stereo not shown) [ANA-12, reference compound]","increased levels of pTrkB, pAkt, pmTOR, NLGN1, PSD-95, and PSD-93",[1],"effectively reversed increased levels of pTrkB, pAkt, pmTOR, NLGN1, PSD-95, and PSD-93"
same,impaired recognition memory,"mice [2]; AAV-Mdga2 shRNA mice, S6C and S6G Fig",neither ANA-12 nor the MDGA2-P2 peptide had effect on rescuing impaired recognition memory
same,impaired cognitive function,"mice [2]; Mdga2+/- mice, acute 0.5 mg/kg i.p. 3 days, Test 1 Interaction F(1,56) = 3.941, p = 0.0520, Test 2 F(1,56) = 0.9635, p = 0.3305",nor did it attenuate impaired cognitive function
same,recognition memory,"mice [2]; Mdga2+/- mice, chronic 0.5 mg/kg i.p. twice per week 3 weeks, Test 1 Interaction F(1,56) = 0.6210, p = 0.4340, Test 2 F(1,56) = 0.7506, p = 0.3900",did not affect the locomotor activity (Fig 5B) or recognition memory
same,elevated AMPAR/NMDAR response ratios,[3],effectively attenuated upon chronic ANA-12 treatment
same,elevated evoked AMPAR-mediated EPSCs,"[3]; Mdga2+/- mice, chronic 0.5 mg/kg i.p., n = 20-21 cells from 3 mice, Fig 5J",effectively attenuated upon chronic ANA-12 treatment
same,increased mEPSC amplitude and frequency,"[4]; Mdga2+/- mice, CA1, n = 14 cells from 3 mice, Interaction F(1,52) = 6.023, p = 0.0175, 5.282, p = 0.0256",reversed the increased mEPSC amplitude and frequency
same,mIPSC frequency or amplitude,"[4]; hippocampal slices CA1, n = 15 cells from 3 mice, Interaction F(1,56) = 0.5436, p = 0.4640, 0.0127, p = 0.9106",nor did chronic ANA-12 treatment affect mIPSC frequency or amplitude
same,cell surface distribution of GluA1 in MDGA2-deficient vs WT neurons,[5],became comparable between these neurons upon ANA-12 treatment
same,elevated TrkB signaling,[6],reversed the elevated TrkB signaling
same,social preference (social affiliation),"mice [7]; acute 0.5 mg/kg i.p. 3 days, acute Test 1 (1 day): Interaction F(1,56) = 7.214, p = 0.0095",significantly higher social preference compared to controls in acute Test 1
same,impaired social affiliation,"mice [7]; chronic 0.5 mg/kg i.p., Test 1 (1 week) Interaction F(1,56) = 10.07, p = 0.0024, Test 2 (5 weeks) F(1,56) = 4.906, p = 0.0309",significantly improved impaired social affiliation in Mdga2^ +/− mice in both chronic Test 1 and chronic Test 2
same,repetitive self-grooming behavior,mice [8],no rescuing effect on repetitive self-grooming behavior
